This note sets out measurements from ChEMBL document CHEMBL1123676, “Synthetic and enzyme inhibition studies of pepstatin analogues containing hydroxyethylene and ketomethylene dipeptide isosteres” (J Med Chem, 1987).

SMILES strings stand for the structures. Non-standard residues stand in square brackets, D forms with d. Residues, ends and D or L forms follow the SMILES beside them. ξ: configuration not given here. *: point of attachment. Cbz = O=C(OCc1ccccc1)*; ξL = CC(C)CC(N)C(=O)O; ξA = CC(N)C(=O)O

The target in experiment [1] is Pepsin A (Sus scrofa) (UniProt P00791). In words: The kinetic constant (Kcat)of porcine pepsin substrate Z-His-Phe-Ala-oMe was determined.
Sequence of Pepsin A (Sus scrofa) (P00791 60-385 limits assumed): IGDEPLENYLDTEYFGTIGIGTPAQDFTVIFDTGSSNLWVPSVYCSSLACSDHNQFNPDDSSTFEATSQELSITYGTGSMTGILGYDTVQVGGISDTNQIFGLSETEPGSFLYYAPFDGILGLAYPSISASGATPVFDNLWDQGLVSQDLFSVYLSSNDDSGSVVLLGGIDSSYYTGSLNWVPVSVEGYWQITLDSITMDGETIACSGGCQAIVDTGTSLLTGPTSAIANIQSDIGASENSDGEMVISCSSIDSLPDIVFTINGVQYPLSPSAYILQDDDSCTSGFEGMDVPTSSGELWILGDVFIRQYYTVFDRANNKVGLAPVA
A short description of experiment [2]: Ratio of kinetic constant kcat / KM of porcine pepsin.
Experiment [3] has as its target T1, Pepsin A (Sus scrofa, UniProt P00791). The experiment in a line: Inhibition of porcine pepsin.
Experiment [4] addresses Pepsin A (Sus scrofa) (UniProt P00791).
Experiment [5] concerns the target T1, Pepsin A. The experiment in a line: Inhibitory activity against porcine pepsin substrate Z-His-Phe-DPhe-oMe was determined.
Experiment [6] deals with Pepsin A (Sus scrofa) (UniProt P00791). The experiment in a line: Slow binding inhibition characteristic of the pepstatin-pepsin interaction; - indicates that the binding is not slow.
Experiment [7] has the same target. In words: The kinetic constant (Kcat)of porcine pepsin substrate Z-His-Phe-Phe-oMe was determined.
For experiment [8] the target is unchanged. The source holds these as a separate data set.
The target is the same in experiment [9]. The experiment in a line: The kinetic constant (Kcat)of porcine pepsin substrate Z-His-Phe-Gly-oMe was determined.
Experiment [10] has the same target. The experiment in a line: The kinetic constant (Kcat)of porcine pepsin substrate Z-His-Phe-Leu-oMe was determined.
The target of experiment [11] is T1, Pepsin A. The experiment in a line: Inhibitory activity against porcine pepsin was determined.
The target of experiment [12] is Pepsin A (Sus scrofa) (UniProt P00791). The experiment in a line: Slow binding inhibition characteristic of the pepstatin-pepsin interaction; indicates that the binding is not slow.

T1 sequence (P00791 whole entry): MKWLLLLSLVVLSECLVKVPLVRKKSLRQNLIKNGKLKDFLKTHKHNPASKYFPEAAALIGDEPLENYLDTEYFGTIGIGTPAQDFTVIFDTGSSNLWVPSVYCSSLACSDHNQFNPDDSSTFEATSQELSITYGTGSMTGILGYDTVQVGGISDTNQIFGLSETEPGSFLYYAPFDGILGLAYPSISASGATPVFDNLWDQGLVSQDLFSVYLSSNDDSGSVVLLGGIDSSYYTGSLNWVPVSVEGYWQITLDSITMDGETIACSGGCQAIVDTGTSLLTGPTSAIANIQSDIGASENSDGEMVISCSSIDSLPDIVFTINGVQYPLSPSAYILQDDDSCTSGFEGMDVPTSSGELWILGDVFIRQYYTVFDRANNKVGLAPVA

In experiment [1], `COC(=O)C(C)NC(=O)[C@H](Cc1ccccc1)NC(=O)[C@H](Cc1c[nH]cn1)NC(=O)OCc1ccccc1` (stereo partly drawn) (Cbz-His-Phe-[ξA]-OMe) showed a k cat of 3.7 ms-1. Further, the Ratio in experiment [2] was determined as 2.1.
Regarding `CC(C)CCNC(=O)C(C)NC(=O)C(C)C[C@H](O)[C@H](CC(C)C)NC(=O)C(NC(=O)CC(C)C)C(C)C` (stereo not given in full), the Ki in [3] stood at 0.003 µM.
The compound `CC(C)CCNC(=O)C(C)C[C@H](O)[C@H](CC(C)C)NC(=O)C(NC(=O)CC(C)C)C(C)C` (stereo not given in full) showed a Ki in experiment [3] of 0.027 µM. The Slow binding entry in experiment [4] is on record as “binding is not slow”.
`COC(=O)[C@@H](Cc1ccccc1)NC(=O)[C@H](Cc1ccccc1)NC(=O)[C@H](Cc1c[nH]cn1)NC(=O)OCc1ccccc1` had a Ki in experiment [5] of 280 µM.
In [3], `CC(C)CCNC(=O)C(C)NC(=O)C(CC(=O)[C@H](CC(C)C)NC(=O)C(NC(=O)CC(C)C)C(C)C)Cc1ccccc1` (stereo not given in full) came in with a Ki of 0.072 µM. The Slow binding entry in [6] is recorded as “binding is not slow”.
`CC(C)CCNC(=O)C(C)NC(=O)CC(=O)C(CC(C)C)NC(=O)C(NC(=O)CC(C)C)C(C)C` (stereo not given) displayed a Ki in experiment [3] of 0.056 µM. For the same compound, the Slow binding entry in [6] was “binding is not slow”.
The compound `COC(=O)C(Cc1ccccc1)NC(=O)[C@H](Cc1ccccc1)NC(=O)[C@H](Cc1c[nH]cn1)NC(=O)OCc1ccccc1` (stereo not given in full) yielded a k cat in experiment [7] of 170 ms-1. In addition, the Ratio in experiment [2] is 520.
As for `CC(C)CCNC(=O)C(C)NC(=O)CC[C@H](O)[C@H](CC(C)C)NC(=O)C(NC(=O)CC(C)C)C(C)C` (stereo not given in full), the inhibitory constant (Ki) in experiment [3] worked out at 0.05 µM. The Slow binding result in [8] is on record as “binding is not slow”.
Compound `CC(C)CCNC(=O)C(C)NC(=O)C(C)CC(=O)[C@H](CC(C)C)NC(=O)C(NC(=O)CC(C)C)C(C)C` (stereo not given in full) yielded an inhibition constant Ki in experiment [3] of 0.027 µM. Besides, the Slow binding result in experiment [6] is reported as “binding is not slow”.
The like results for `CC(C)CCNC(=O)C(C)NC(=O)CCC(=O)[C@H](CC(C)C)NC(=O)C(NC(=O)CC(C)C)C(C)C` (stereo not given in full) were, in that order, 2.14 µM and “binding is not slow”.
In experiment [9], `COC(=O)CNC(=O)[C@H](Cc1ccccc1)NC(=O)[C@H](Cc1c[nH]cn1)NC(=O)OCc1ccccc1` (Cbz-His-Phe-Gly-OMe) came in with a k cat of 2.1 ms-1. For the same compound, the Ratio in experiment [2] worked out at 1.3.
In the case of `CC(C)CCNC(=O)C(C)NC(=O)[C@@H](CC(=O)[C@H](CC(C)C)NC(=O)C(NC(=O)CC(C)C)C(C)C)Cc1ccccc1` (stereo not given in full), the inhibitory constant (Ki) in experiment [3] is 0.85 µM. Further, the Slow binding result in experiment [6] is given as “binding is not slow”.
Compound `COC(=O)C(CC(C)C)NC(=O)[C@H](Cc1ccccc1)NC(=O)[C@H](Cc1c[nH]cn1)NC(=O)OCc1ccccc1` (stereo partly drawn) (Cbz-His-Phe-[ξL]-OMe) came in with a k cat in [10] of 5.2 ms-1. The Ratio in [2] came to 10.
As for `CC(C)CCNC(=O)C(C)NC(=O)C[C@H](O)C(CC(C)C)NC(=O)C(NC(=O)CC(C)C)C(C)C` (stereo not given in full), the Ki in experiment [11] worked out at 0.003 µM.
For `CC(C)CCNC(=O)C(C)NC(=O)[C@H](Cc1ccccc1)C[C@H](O)[C@H](CC(C)C)NC(=O)C(NC(=O)CC(C)C)C(C)C` (stereo not given in full), in experiment [3], affinity was put at a Ki of 0.14 µM. In addition, the Slow binding entry in [12] was “indicates that the binding is not slow”.
The compound `CC(C)CCNC(=O)CNC(=O)C[C@H](O)C(CC(C)C)NC(=O)C(NC(=O)CC(C)C)C(C)C` (stereo not given in full) yielded a Ki in experiment [3] of 0.056 µM. Also, the Slow binding result in [6] is given as “binding is not slow”.
`CC(C)CCNC(=O)C(C)NC(=O)C(Cc1ccccc1)C[C@H](O)[C@H](CC(C)C)NC(=O)C(NC(=O)CC(C)C)C(C)C` (stereo not given in full): the affinity in [3] corresponds to a Ki of 0.0025 µM.
